Structures can show the parent of a compound that is named as a salt. Where two headings read alike, the source gives them in different places.
Experiments:
[1] = biological target: purified human Factor XIa (Homo sapiens (Human), UniProt P03951); test: Factor XIa enzyme inhibition assay (chromogenic substrate S-2366); settings: read-out: Factor XIa Ki, measured at 25° C.
[2] = biological target: purified human plasma kallikrein (Homo sapiens (Human), UniProt P03952); test: Plasma kallikrein enzyme inhibition assay (chromogenic substrate S-2302); format: biochemical
Sequence of purified human plasma kallikrein (P03952 391-638): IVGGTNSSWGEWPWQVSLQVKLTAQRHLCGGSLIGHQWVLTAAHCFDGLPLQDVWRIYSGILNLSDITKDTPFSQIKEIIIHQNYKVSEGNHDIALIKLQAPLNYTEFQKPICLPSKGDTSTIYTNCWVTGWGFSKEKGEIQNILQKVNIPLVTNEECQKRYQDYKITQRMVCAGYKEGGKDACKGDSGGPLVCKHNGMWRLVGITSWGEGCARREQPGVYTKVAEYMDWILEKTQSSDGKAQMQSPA
Sequence of purified human plasma kallikrein (P03952 20-390 partner): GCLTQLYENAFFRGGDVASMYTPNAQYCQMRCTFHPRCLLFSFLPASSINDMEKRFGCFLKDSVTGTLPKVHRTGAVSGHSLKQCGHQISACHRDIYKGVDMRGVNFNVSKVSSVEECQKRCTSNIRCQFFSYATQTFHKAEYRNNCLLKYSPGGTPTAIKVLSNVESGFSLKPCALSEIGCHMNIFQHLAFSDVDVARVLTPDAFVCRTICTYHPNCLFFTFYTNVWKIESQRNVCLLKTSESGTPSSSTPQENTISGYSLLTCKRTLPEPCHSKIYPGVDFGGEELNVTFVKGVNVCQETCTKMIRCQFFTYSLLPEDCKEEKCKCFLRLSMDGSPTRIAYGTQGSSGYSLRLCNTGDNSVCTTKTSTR

[3] = measured at 25° C. (no asterisk), TFA salt

Sequence of purified human Factor XIa (P03951 388-625): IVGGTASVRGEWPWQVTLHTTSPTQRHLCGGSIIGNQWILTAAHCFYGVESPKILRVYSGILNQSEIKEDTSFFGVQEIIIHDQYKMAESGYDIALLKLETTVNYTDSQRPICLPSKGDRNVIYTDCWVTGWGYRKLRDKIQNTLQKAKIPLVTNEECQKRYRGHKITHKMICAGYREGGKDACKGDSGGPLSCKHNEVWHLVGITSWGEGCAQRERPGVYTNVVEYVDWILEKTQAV
Sequence of purified human Factor XIa (P03951 19-387 partner): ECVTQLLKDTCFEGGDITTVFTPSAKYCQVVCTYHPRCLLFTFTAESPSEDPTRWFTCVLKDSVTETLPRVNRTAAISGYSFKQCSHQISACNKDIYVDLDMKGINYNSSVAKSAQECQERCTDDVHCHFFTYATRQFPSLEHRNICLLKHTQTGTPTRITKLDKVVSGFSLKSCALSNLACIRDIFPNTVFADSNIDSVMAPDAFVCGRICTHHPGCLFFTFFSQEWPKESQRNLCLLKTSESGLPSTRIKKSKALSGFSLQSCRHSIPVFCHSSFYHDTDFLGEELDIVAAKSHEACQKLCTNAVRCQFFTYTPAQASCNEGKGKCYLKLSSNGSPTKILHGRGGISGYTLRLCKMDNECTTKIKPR

| SMILES | Ki [1] [nM] | Ki ([2]; measured at 37° C. (*)) [nM] | Ki ([1]; TFA salt) [nM] | Ki [2, 3] [nM] |
| --- | --- | --- | --- | --- |
| O=C(O)c1ccc(NC(=O)[C@H]2c3cccc(N4CCN(CC(F)(F)F)CC4)c3CCN2C(=O)[C@H]2CC(c3cccc(Cl)c3F)=NO2)cc1 [Example 231, 4-((R)-2-((R)-3-(3-Chloro-2-fluorophenyl)-4,5-dihydroisoxazole-5-carbonyl)-5-(4-(2,2,2-trifluoroethyl)piperazin-1-yl)-1,2,3,4-tetrahydroisoquinoline-1-carboxamido)benzoic acid, 2 TFA salt] | 136 | 1290 |  |  |
| COC(=O)c1ccc(NC(=O)[C@@H]2c3cccc(N4CCN(C5COC5)CC4)c3CCN2C(=O)[C@H]2CC(c3cccc(Cl)c3F)=NO2)cc1 [Example 232, Methyl 4-((S)-2-((R)-3-(3-chloro-2-fluorophenyl)-4,5-dihydroisoxazole-5-carbonyl)-5-(4-(oxetan-3-yl)piperazin-1-yl)-1,2,3,4-tetrahydroisoquinoline-1-carboxamido)benzoate, 2 TFA salt] | 4130 | 29.7 |  |  |
| COC(=O)c1ccc(NC(=O)[C@H]2c3cccc(N4CCN(C5COC5)CC4)c3CCN2C(=O)[C@H]2CC(c3cccc(Cl)c3F)=NO2)cc1 [Example 233, Methyl 4-((R)-2-((R)-3-(3-chloro-2-fluorophenyl)-4,5-dihydroisoxazole-5-carbonyl)-5-(4-(oxetan-3-yl)piperazin-1-yl)-1,2,3,4-tetrahydroisoquinoline-1-carboxamido)benzoate, 2 TFA salt] | 5.45 | > 13000 |  |  |
| Cn1ncnc1-c1cccc2c1CCN(C(=O)c1cn(-c3cccc(Cl)c3F)nn1)C2C(=O)Nc1ccc(C(=O)O)cc1 (centres unmarked) [Example 245, 4-(2-(1-(3-Chloro-2-fluorophenyl)-1H-1,2,3-triazole-4-carbonyl)-5-(1-methyl-1H-1,2,4-triazol-5-yl)-1,2,3,4-tetrahydroisoquinoline-1-carboxamido)benzoic acid, TFA salt] | < 5 | 68.2 |  |  |
| Cn1cnc(-c2cccc3c2CCN(C(=O)c2cn(-c4cccc(Cl)c4F)nn2)C3C(=O)Nc2ccc(C(=O)O)cc2)c1 (centres unmarked) [Example 246, 4-(2-(1-(3-Chloro-2-fluorophenyl)-1H-1,2,3-triazole-4-carbonyl)-5-(1-methyl-1H-imidazol-4-yl)-1,2,3,4-tetrahydroisoquinoline-1-carboxamido)benzoic acid, TFA salt] | < 5 | 29.7 |  |  |
| O=C(O)c1ccc(NC(=O)C2c3cccc(-n4cnnc4)c3CCN2C(=O)c2cn(-c3cccc(Cl)c3F)nn2)cc1 (centres unmarked) [Example 249, 4-(2-(1-(3-Chloro-2-fluorophenyl)-1H-1,2,3-triazole-4-carbonyl)-5-(4H-1,2,4-triazol-4-yl)-1,2,3,4-tetrahydroisoquinoline-1-carboxamido)benzoic acid, TFA salt] | < 5 | 20.4 |  |  |
| Cc1ncn(-c2cccc3c2CCN(C(=O)[C@H]2CC(c4cccc(Cl)c4F)=NO2)[C@@H]3C(=O)Nc2ccc(C(=O)O)cc2)n1 [Example 250, 4-((S)-2-((R)-3-(3-Chloro-2-fluorophenyl)-4,5-dihydroisoxazole-5-carbonyl)-5-(3-methyl-1H-1,2,4-triazol-1-yl)-1,2,3,4-tetrahydroisoquinoline-1-carboxamido)benzoic acid, TFA salt] | < 5 | 6.8 |  |  |

The next lines start with the values.

| Ki [1] [nM] | Ki ([2]; measured at 37° C. (*)) [nM] | Ki ([1]; TFA salt) [nM] | Ki [2, 3] [nM] | SMILES |
| --- | --- | --- | --- | --- |
| 14.7 | 601 |  |  | Cc1ncn(-c2cccc3c2CCN(C(=O)[C@H]2CC(c4cccc(Cl)c4F)=NO2)[C@H]3C(=O)Nc2ccc(C(=O)O)cc2)n1 [Example 251, 4-((R)-2-((R)-3-(3-Chloro-2-fluorophenyl)-4,5-dihydroisoxazole-5-carbonyl)-5-(3-methyl-1H-1,2,4-triazol-1-yl)-1,2,3,4-tetrahydroisoquinoline-1-carboxamido)benzoic acid, TFA salt] |
|  |  | 7.13 | 218 | COC1CCN(c2cccc3c2CCN(C(=O)C2CC(=O)N(c4cccc(Cl)c4F)C2)C3C(=O)Nc2ccc(C(=O)O)cc2)CC1 (centres unmarked) [Example 255, 4-(2-(1-(3-chloro-2-fluorophenyl)-5-oxopyrrolidine-3-carbonyl)-5-(4-methoxypiperidin-1-yl)-1,2,3,4-tetrahydroisoquinoline-1-carboxamido)benzoic acid, TFA salt] |
|  |  | 12.5 | 198 | COC1CCN(c2cccc3c2CCN(C(=O)C2CC(c4c(F)ccc(Cl)c4F)=NO2)C3C(=O)Nc2ccc(C(=O)O)cc2)CC1 (centres unmarked) [Example 256, 4-(2-(3-(3-chloro-2,6-difluorophenyl)-4,5-dihydroisoxazole-5-carbonyl)-5-(4-methoxypiperidin-1-yl)-1,2,3,4-tetrahydroisoquinoline-1-carboxamido)benzoic acid, TFA salt] |
|  |  | < 5 | 24 | COC1CCN(c2cccc3c2CCN(C(=O)C2CC(c4c(F)ccc(Cl)c4F)=NO2)C3C(=O)Nc2ccc(C(=O)O)cc2)CC1 (centres unmarked) [Example 257, 4-(2-(3-(3-chloro-2,6-difluorophenyl)-4,5-dihydroisoxazole-5-carbonyl)-5-(4-methoxypiperidin-1-yl)-1,2,3,4-tetrahydroisoquinoline-1-carboxamido)benzoic acid, TFA salt] |
|  |  | 2460 | 4750 | COC1CCN(c2cccc3c2CCN(C(=O)C2CC(=O)N(c4cccc(Cl)c4F)C2)C3C(=O)Nc2ccc(C(=O)O)cc2)CC1 (centres unmarked) [Example 260, 4-(2-(1-(3-chloro-2-fluorophenyl)-5-oxopyrrolidine-3-carbonyl)-5-(4-methoxypiperidin-1-yl)-1,2,3,4-tetrahydroisoquinoline-1-carboxamido)benzoic acid, TFA salt] |
|  |  | < 5 | 4.36 | CC(C)(O)C1CCN(c2cccc3c2CCN(C(=O)C2CC(c4cccc(Cl)c4F)=NO2)C3C(=O)Nc2ccc(C(=O)O)cc2)CC1 (centres unmarked) [Example 262, 4-(2-(3-(3-chloro-2-fluorophenyl)-4,5-dihydroisoxazole-5-carbonyl)-5-(4-(2-hydroxypropan-2-yl)piperidin-1-yl)-1,2,3,4-tetrahydroisoquinoline-1-carboxamido)benzoic acid, TFA salt] |
|  |  | 11.5 | 68.1 | CC(C)(O)C1CCN(c2cccc3c2CCN(C(=O)C2CC(c4cccc(Cl)c4F)=NO2)C3C(=O)Nc2ccc(C(=O)O)cc2)CC1 (centres unmarked) [Example 263, 4-(2-(3-(3-chloro-2-fluorophenyl)-4,5-dihydroisoxazole-5-carbonyl)-5-(4-(2-hydroxypropan-2-yl)piperidin-1-yl)-1,2,3,4-tetrahydroisoquinoline-1-carboxamido)benzoic acid, TFA salt] |
|  |  | 420 | 687 | COC1CCN(c2cccc3c2CCN(C(=O)C2(C)CC(c4cccc(Cl)c4F)=NO2)C3C(=O)Nc2ccc(C(=O)O)cc2)CC1 (centres unmarked) [Example 266, 4-(2-(3-(3-chloro-2-fluorophenyl)-5-methyl-4,5-dihydroisoxazole-5-carbonyl)-5-(4-methoxypiperidin-1-yl)-1,2,3,4-tetrahydroisoquinoline-1-carboxamido)benzoic acid, TFA salt] |
|  |  | 103 | 354 | COC1CCN(c2cccc3c2CCN(C(=O)C2(C)CC(c4cccc(Cl)c4F)=NO2)C3C(=O)Nc2ccc(C(=O)O)cc2)CC1 (centres unmarked) [Example 267, 4-(2-(3-(3-chloro-2-fluorophenyl)-5-methyl-4,5-dihydroisoxazole-5-carbonyl)-5-(4-methoxypiperidin-1-yl)-1,2,3,4-tetrahydroisoquinoline-1-carboxamido)benzoic acid, TFA salt] |

Source: patent US9738655B2, “Tetrahydroisoquinolines containing substituted azoles as factor XIa inhibitors” (BRISTOL-MYERS SQUIBB COMPANY, priority 2013, dated 2017)
